Read-outs that look alike come from different tables or passages of the source. Non-standard residues stand in square brackets, D forms with d. Residues, ends and D or L forms follow the SMILES beside them. No end group written: not given here. Dmt = Cc1cc(O)cc(C)c1C[C@H](N)C(=O)O; Orn = NCCC[C@H](N)C(=O)O
Tests used:
[1] = system: A549 cells; assay type: cell-based, human; details: 24 h
Procedure: Cells were seeded in 96‐well cell culture plates (8000/well) and allowed to grow for 48 h. After washing with PBS, cells were fixed with 50% trichloroacetic acid and stained with SRB for 20 min. Excess SRB was removed, and cells were washed with 1% acetic acid. SRB extraction was done using 100 mM Tris‐base, and absorbance at 510 nm was determined using an Infinite M1000 plate reader (Tecan, Männedorf, Switzerland).
Fig. 7 PSD‐interacting peptides bind to PSD, inhibiting its activity, and when cell‐penetrating and mitochondria‐ or nucleus‐targeted, inhibit cell proliferation. […] (B) Inhibition of PSD activity by the 2F3 (●) or 1C11 (○) peptide. PSD activity was measured using the DSB‐3 method. (C‐E) Cell proliferation inhibition following incubation of A549 cells with the indicated mitochondria‐ or nucleus‐targeted peptides for 24 h in a serum‐free medium, and cell proliferation was assayed using the SRB method. Results are the means ± SEM (n = 3). (F) A549 cells were incubated for 90 min with 5 µM of the mitochondria‐ or nucleus‐targeted FITC‐labelled peptides, immunostained with anti‐SMAC antibodies and with DAPI and visualized by confocal microscope for subcellular localization. (a) and (b) present higher magnification, white arrows point to possible nuclear localization of the peptide, and blue arrows to its colocalization with mitochondria marker (n = 3). Scale bars represent 20, 10 µm as indicated.
Table S4. Effects of peptide identified as interacting with PSD or their interaction with SMAC/Diablo is prevented in the presence of PSD on A549 lung cancer cell growth A549 cells were seeded in 96-well plate (7000 cells/well). After 24 h cells were incubated without or with the indicated peptide concentration for 24 h in a serum-free medium. Then, cells were washed with PBS, and analyzed for cell growth using the SRB method. Results are the mean ± SD (n=3). Peptide sequence, its identification manner, based on interacting with PSD or their interaction with SMAC/Diablo is prevented in the presence of PSD are shown. In addition, the peptides are presented with the cell penetrating peptide targeting to the mitochondria or the nucleus. The results are presented as the concentration required for 50% inhibition (IC50).
No Peptide spot and Protein/Function Peptide and Cellular IC50 […]
ALSTSSPIPSVPQSQ transcriptional coactivator 2 Mitochondria (A) […]
AQPQTGSGAS truncated poly Q, transcriptional H-(D-Arg)–Dmt–Orn–Phe- 2F3 >100 Interacting with PSD coactivator for NOTCH proteins, Mitochondria promotes proliferative signaling R-{D-Arg}-RK- 2F3 28.9±5.2 during neurogenesis (Nucleus). Nucleus […]
PNQSSRAFQGTDHS transcriptional coactivator 2 Mitochondria
SDLAFDFLSQQ truncated poly Q, A transcriptional D-Arg–Dmt–Orn–Phe-2I8 66.8±4.7 Identified by PSD coactivator for NOTCH proteins, Mitochondria preventing SMAC promotes proliferative signaling R-{D-Arg}-RK-2I8 >100 interaction with it during neurogenesis (Nucleus). Nucleus […]
ALLTSGTSDPRARV protease promotes cell death either Mitochondria […]
TYGTPSLWARL by direct binding to IAPs proteins D-Arg–Dmt–Orn–Phe -1C11 89.3±5.49 Interacting with PSD leading to increased caspase Mitochondria activity or caspase-independent and serine protease activity-dependent R-{D-Arg}-RK- 1C11 66.5±3.9 mechanism. (Mitochondrion Nucleus intermembrane space). 1C11- R-{D-Arg}-RK 30.0±3.8 […]
ELYRMSTYSTFPAG Acts as an E3 ubiquitin-protein Mitochondria
VPVSERSLARA ligase, regulator of NF-kappa-B 1E14- D-Arg–Dmt–Orn–Phe >100 Identified by PSD signaling, apoptosis, cell Mitochondria preventing SMAC proliferation, cell invasion and R-{D-Arg}-RK-1E14 >100 interaction with it metastasis, modulates inflammatory Nucleus signaling, (Cytosol, nucleus and […]

[2] = molecular target: T1, purified PSD (Homo sapiens, UniProt Q9UG56); experiment: MST, labelled PSD with synthetic peptides; details: labelled PSD 0.25 µM, peptide 1–10 µM, 30 min, 37 °C, n = 3, read-out: Kd, peptide binding to purified PSD
T1 construct: Purified recombinant protein (full length) of human phosphatidylserine decarboxylase (PSD); His tag (N); purchased Acris-OriGene; host or cells: E. coli
T1 sequence (Q9UG56 53-409): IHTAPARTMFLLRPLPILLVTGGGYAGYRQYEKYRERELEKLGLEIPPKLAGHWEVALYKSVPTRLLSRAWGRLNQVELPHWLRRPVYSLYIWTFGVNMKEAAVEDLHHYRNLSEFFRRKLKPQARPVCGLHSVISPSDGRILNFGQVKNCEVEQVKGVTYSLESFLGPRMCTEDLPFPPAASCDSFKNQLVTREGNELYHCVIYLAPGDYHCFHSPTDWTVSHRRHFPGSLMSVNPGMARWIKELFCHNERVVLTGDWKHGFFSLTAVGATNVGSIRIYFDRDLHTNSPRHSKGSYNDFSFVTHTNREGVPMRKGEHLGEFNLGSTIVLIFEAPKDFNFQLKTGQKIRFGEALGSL

[3] = system: purified SMAC; experiment: Glass‐bound peptide array blotted with SMAC with or without PSD; assay type: binding, human; details: SMAC preincubated with purified PSD, anti‐SMAC antibodies
Procedure: Customized 768‐peptide sequences derived from 11 SMAC‐interacting proteins produced by INTAVIS Peptide Services (GmbH & Co. KG, Tübingen, Germany) were arrayed on a glass slide. Peptide arrays were blotted with SMAC, PSD or peptides interacting with PSD using anti‐SMAC or anti‐PSD antibodies. The interaction of purified SMAC or PSD with glass‐bound peptide arrays was assessed by slide washing (three times, 10 min each) with Tris‐buffered saline (150 mM NaCl, 50 mM Tris/HCl, pH 7.4), followed by overnight incubation with blocking buffer (Tris‐buffered saline containing low‐fat dry milk, 2.5%, w/v). The slides were then incubated for 4 h or overnight with purified SMAC (0.8 µM) with and without preincubation with PSD (0.3 µM). Similarly, slides were incubated with PSD (0.15 µM) with or without preincubation with the indicated peptide (20 μM) in blocking buffer at room temperature. After extensive slide washing with Tris‐buffered saline containing 0.05% Tween‐20, SMAC or PSD binding was detected using anti‐SMAC or anti‐PSD antibodies and HRP‐conjugated anti‐rabbit or anti‐mouse IgG as a secondary antibody. The blots were developed using EZ‐ECL (Biological Industries), according to the manufacturer’s instructions.
Fig. 6 PSD‐ and SMAC‐interacting partners. (A) Schematic presentation of peptide array and detection of their interaction with SMAC. (B) Glass‐bound peptide array consisting of overlapping peptides derived from 15 SMAC‐interacting proteins were incubated overnight with purified SMAC (0.8 µM) and then blotted with anti‐SMAC antibodies (1 : 1000), followed by incubation with HRP‐conjugated anti‐mouse IgG and detection using a chemiluminescence kit. Dark spots represent binding of SMAC to peptides derived from SMAC‐interacting proteins. (C) SMAC (0.3 µM) was incubated with purified PSD (0.4 µM) and blotted as in (B). The peptide spots where PSD prevented interaction with SMAC (Table S1) are circled. (D) Schematic presentation of peptide array and detection of their interaction with PSD. […]

[4] = system: different cell lines; details: ref [35], cited from earlier work
Excerpt: To target the peptide to the nucleus (nuCPP), the peptides were fused to the tetrapeptide RrRK (r = D‐arginine), shown to primarily target the nucleus of HeLa cells.

[5] = molecular target: T2, Purified recombinant protein (full length) of human phosphatidylserine decarboxylase (PSD) (human, UniProt Q9UG56 53-409, fluorescently labelled (in the MST with the peptides 2F3 and 1C11 only)); experiment: MST; SMAC fluorescently labelled (NanoTemper BLUE kit), 1 µM, incubated with purified PSD (78–625 nM) for 30 min at 37 °C; 10 mM Tris buffer, pH 7.4; Monolith NT.115, LED 20%, IR laser 20%; details: both partners purified
T2 construct: phosphatidylserine decarboxylase, human, full length, recombinant; also called PISD; purified PSD; source: bought: Acris‐OriGene, expressed in E. coli, purified; not shown: His tag, N-terminal, kept
T2 sequence (looked up): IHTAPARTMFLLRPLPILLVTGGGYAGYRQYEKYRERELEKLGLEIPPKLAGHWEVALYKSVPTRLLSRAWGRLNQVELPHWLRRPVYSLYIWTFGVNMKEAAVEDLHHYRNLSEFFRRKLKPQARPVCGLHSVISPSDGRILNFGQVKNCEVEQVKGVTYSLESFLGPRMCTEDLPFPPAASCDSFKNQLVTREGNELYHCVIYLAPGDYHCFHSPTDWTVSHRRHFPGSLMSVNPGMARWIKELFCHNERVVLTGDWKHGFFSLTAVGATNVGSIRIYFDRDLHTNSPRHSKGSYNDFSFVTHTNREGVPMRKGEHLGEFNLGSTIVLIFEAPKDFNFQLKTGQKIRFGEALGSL

CC(C)C[C@H](NC(=O)[C@H](CCCNC(=N)N)NC(=O)[C@H](C)NC(=O)[C@H](Cc1c[nH]c2ccccc12)NC(=O)[C@H](CC(C)C)NC(=O)[C@H](CO)NC(=O)[C@@H]1CCCN1C(=O)[C@@H](NC(=O)CNC(=O)[C@H](Cc1ccc(O)cc1)NC(=O)[C@@H](NC(=O)[C@@H](NC(=O)[C@H](CCCNC(=N)N)NC(=O)[C@H](C)NC(=O)[C@H](CCCNC(=N)N)NC(=O)[C@@H]1CCCN1C(=O)[C@H](CC(=O)O)NC(=O)[C@H](CO)NC(=O)[C@@H](NC(=O)CNC(=O)[C@H](CO)NC(=O)[C@@H](NC(=O)[C@H](CC(C)C)NC(=O)[C@H](CC(C)C)NC(=O)[C@H](C)NC(=O)[C@H](CCCCN)NC(=O)[C@H](CCCNC(=N)N)NC(=O)[C@@H](CCCNC(=N)N)NC(=O)[C@@H](N)CCCNC(=N)N)[C@@H](C)O)[C@@H](C)O)C(C)C)[C@@H](C)O)[C@@H](C)O)C(=O)O [R-{D-Arg}-RK- 1C11] (H-R[dR]RKALLTSGTSDPRARVTYGTPSLWARL-OH; N-terminus and C-terminus assumed)
IC50 [1]: 66.5 ± 3.9 µM

CC[C@H](C)[C@H](NC(=O)[C@@H]1CCCN1C(=O)[C@H](CO)NC(=O)[C@H](CO)NC(=O)[C@@H](NC(=O)[C@H](CO)NC(=O)[C@H](CC(C)C)NC(=O)[C@H](C)NC(=O)[C@H](CCCCN)NC(=O)[C@H](CCCNC(=N)N)NC(=O)[C@@H](CCCNC(=N)N)NC(=O)[C@@H](N)CCCNC(=N)N)[C@@H](C)O)C(=O)N1CCC[C@H]1C(=O)N[C@@H](CO)C(=O)N[C@H](C(=O)N1CCC[C@H]1C(=O)N[C@@H](CCC(N)=O)C(=O)N[C@@H](CO)C(=O)N[C@@H](CCC(N)=O)C(=O)N[C@@H](C)C(=O)N[C@@H](CCC(N)=O)C(=O)N1CCC[C@H]1C(=O)N[C@@H](CCC(N)=O)C(=O)N[C@H](C(=O)NCC(=O)N[C@@H](CO)C(=O)NCC(=O)N[C@@H](C)C(=O)N[C@@H](CO)C(=O)O)[C@@H](C)O)C(C)C [R-{D-Arg}-RK- 2F3] (H-R[dR]RKALSTSSPIPSVPQSQAQPQTGSGAS-OH; N-terminus and C-terminus assumed)
IC50 [1]: 28.9 ± 5.2 µM | IC50 ([1]; A549 cells, serum‐free medium, SRB, read-out: IC50, cell proliferation inhibition): 19.6 µM

ALLTSGTSDPRARVTYGTPSLWRL [1C11]
Kd [2]: 3 µM

ALSTSSPIPSVPQSQAQPQTGSGAS [2F3]
Kd [2]: 3 µM

DVDKLREQLS TSENALTGRILDLKT [2J14]
effect of PSD preincubation on SMAC binding to the peptide spot [3]: prevented SMAC interaction

FQQLTCVLPI LDNLLKANVINKQEH [1E14]
effect of PSD preincubation on SMAC binding to the peptide spot [3]: prevented SMAC interaction

PNQSSRAFQGT DHSSDLAFDFLSQQ [2I8]
effect of PSD preincubation on SMAC binding to the peptide spot [3]: prevented SMAC interaction

[dR][Dmt][Orn]F-NH2 [mtCPP‐1]
toxicity ([4]; different cell lines): no toxicity | induction of apoptosis [4]: did not induce apoptosis

B1: Human recombinant SMAC (SMAC/Diablo, second mitochondria‐derived activator of caspase/direct inhibitor of apoptosis‐binding protein with low pI) (natural protein)
chain: AVPIAQKSEPHSLSSEALMRRAVSLVTDSTSTFLSQTTYALIEAITEYTKAVYTLTSLYRQYTSLLGKMNSEEEDEVWQVIIGARAEMTSKHQEYLKLETTWMTAVGLSEMAAEAAYQTGADQASITARNHIQLVKLQVEEVHQLSRKAETKLAEAQIEELRQKTQEEGEERAESEQEAYLRED
modifications: fluorescently labelled with the NanoTemper Protein labelling kit BLUE (in the MST with PSD only)
Kd [5]: 0.246 µM

Reference: paper PMC8564633, “SMAC/Diablo controls proliferation of cancer cells by regulating phosphatidylethanolamine synthesis” (Molecular Oncology, 2021)
